Data published in patent publication US11470844B2, “Vespidae wasp repellent” (KINP CO., LTD, priority 2015, dated 2022).

What was measured:
Vespa mandarinia worker [1] = assay: Spray on Vespa mandarinia worker collecting sawthorn oak sap; type: in vivo, Vespa mandarinia japonica Radoszkowski; conditions: 10 workers; for behavior of workers after spraying: immediately started flapping, same time or a few seconds later; for Number of worker Effective / Number of worker No response: sprayed one time, observed up to 1 minute
Experimental: The experiment was conducted on a Vespa mandarinia japonica Radoszkowski worker which flew to a sawthorn oak tree bleeding sap and which collected the sap in Kagawa Prefecture Kinbuchi Forest Park in Takamatsu City Kagawa Prefecture from June to October, 2014 and from June to July, 2015.
Specifically, 100 mL of distilled water was enclosed in a plastic sprayer having a volume of 200 mL to be used as a control sprayer, and 100 mL of benzyl alcohol was enclosed in the same material and the same volume sprayer to be used as a test liquid sprayer. First, distilled water was sprayed one time to one Vespa mandarinia worker which was collecting sap at a sap bleeding part of a trunk of a sawthorn oak tree by using a control sprayer. […] Then, benzyl alcohol was sprayed one time by using a test liquid sprayer. Next, the workers were observed up to 1 minute. With respect to 2-phenylethanol, 3-phenylpropanol, 1-phenyl-2-prpanol and benzyl acetate, the spray test to a Vespa mandarinia worker collecting a sawthorn oak sap was conducted in the same condition.

Vespa mandarinia worker [2] = assay: Black ball nest disturbance, Experiment 2 (new black ball, 30 s vibration); type: in vivo; conditions: for repellent effect: in vivo
Text: In the above-described Experiment 1, it was observed that vibrating the black ball in contact with the nest entrance more strongly induces the attack behavior of the worker rather than vibrating the black ball in the air away from the nest. Accordingly, the attack situation of the worker was investigated by vibrating the black ball in contact with the entrance of the same Vespidae wasp nest used in the above-described Experiment 1 for 30 seconds on Oct. 31, 2014. Specifically, the attack situation of the worker was observed similarly to the above-described Experiment 1 except for using a new black ball without using the black ball on which alarm pheromone was adsorbed even in the case of the test liquid and using 2-phenylethanol or benzyl alcohol as the test liquid by vibrating the black ball in contact with the entrance of the same nest for 30 seconds.
As a result, in the case of the black ball on which distilled water was sprayed, it was difficult to count the total number of the workers which flew to and alighted on the black ball for attack, since the black ball was continued to be attacked by the workers for 150 seconds from the end of the vibration almost without interruption and the number of attacking worker was clearly larger in comparison with the case of the above-described Experiment 1. The inventors therefore counted the number of the worker which could be observed on the hemispherical surface of the black ball from the video image at intervals of 30 seconds from the end of the disturbance. In addition, a picture of the video footage 145 seconds after the end of the nest entrance disturbance is shown as FIG. 1. FIG. 1A is an image of the case where distilled water was used, FIG. 1B is an image of the case where 2-phenylethanol was used, and FIG. 1C is an image of the case where benzyl alcohol was used.

[3] = tested on: Vespa simillima xanthoptera worker; assay: Black ball nest disturbance, Experiment 2; type: in vivo; conditions: for number of worker on black ball hemispherical surface: new black ball; for repellent effect and action to suppress the aggression: in vivo
Experimental: A similar experiment to the above-described Example 2(2) was conducted against the same Vespa simillima xanthoptera nest of the above-described Experiment 1 on Oct. 31, 2014. The number of worker on the black spherical hemispherical surface counted every 30 seconds on the basis of the video image is shown in Table 5, and the picture of the video footage after 115 seconds is shown as FIG. 2. FIG. 2A is an image of the case where distilled water was used, FIG. 2B is an image of the case where 2-phenylethanol was used, and FIG. 2C is an image of the case where benzyl alcohol was used.

Apis mellifera worker = conditions: in vivo
Experimental: The experiment involving a Apis mellifera worker which was sucking nectar from a flower of Abelia planted at a bank of Noda pond located at Fuseishi-cho, Takamatsu City, Kagawa Prefecture was conducted on Jul. 22 to 24, 2015.
With respect to the experimental condition, first, distilled water was sprayed once on the worker which was sucking nectar or moving from a flower to a flower by using a sprayer, and then the inventors observed the behavior for 30 seconds. Next, benzyl alcohol, 2-phenylethanol or benzyl acetate was sprayed once on the same worker by using the sprayer having the same mass and the same volume, and then the inventors observed the behavior up to 30 seconds. The test liquid was judged to be “effective” in the case where the Apis mellifera worker on which the test liquid was sprayed did different action than normal activity to visit a flower during the observation time.

[4] = tested on: P. chinensis antennalis Pe'rez worker group; assay: Spray on worker group on nest; type: in vivo; conditions: 9:02, 1 minute after spraying benzyl alcohol; 32 workers before
Experimental: The experiment involving a worker group of Polistes jokahamae jokahamae Radoszkowski on the exterior wall of a nest found in the campus of Faculty of Agriculture, Kochi University, located on 200 Otsu, Monobe, Nankoku City, Kochi Prefecture, was conducted on Jul. 13, 2015, and the experiment involving a worker of P. jokahamae jokahamae Radoszkowski which collected sap bled from sucking mark by adult Cryptotympana facialis of Zelkova tree stem planted in a private house in Fuseishi-cho, Takamatsu City, Kagawa Prefecture was conducted on July 19 to 22, 2015. In addition, the experiment involving a worker group of P. chinensis antennalis Pe'rez on the exterior wall of a nest found on a branch of a cheesewood planted at a bank of Noda pond located at Fuseishi-cho, Takamatsu City, Kagawa Prefecture was conducted on Jul. 30, 2015.
The experiment was conducted in accordance with the above-described Example 1(1) involving a Vespa mandarinia worker, distilled water as a control example spray and benzyl alcohol as a test liquid example spray were sequentially sprayed on a test object group or a test object worker by using a sprayer, and the behavior from immediately after spraying up to 1 minute later was respectively recorded. […]

OCCc1ccccc1 [2-Phenylethanol, 2-phenylethanol]
behavior of workers after spraying (Vespa mandarinia worker [1]): flew away from the sap bleeding part
Number of worker Effective (Vespa mandarinia worker [1]): 10/10
Number of worker No response (Vespa mandarinia worker [1]): 0/10
number of worker on hemispherical surface of black ball (Vespa mandarinia worker [2]; 30 s after disturbance): 0
number of worker on hemispherical surface of black ball (Vespa mandarinia worker [2]; 60 s after disturbance): 0
number of worker on hemispherical surface of black ball (Vespa mandarinia worker [2]; 90 s after disturbance): 0
number of worker on hemispherical surface of black ball (Vespa mandarinia worker [2]; 120 s after disturbance): 0
number of worker on hemispherical surface of black ball (Vespa mandarinia worker [2]; 150 s after disturbance): 0
repellent effect (Vespa mandarinia worker [2]): very strong
number of worker on black ball hemispherical surface ([3]; 30 s after disturbance): 1
number of worker on black ball hemispherical surface ([3]; 60 s after disturbance): 0
number of worker on black ball hemispherical surface ([3]; 90 s after disturbance): 0
number of worker on black ball hemispherical surface ([3]; 120 s after disturbance): 0
number of worker on black ball hemispherical surface ([3]; 150 s after disturbance): 0
repellent effect and action to suppress the aggression [3]: strong equivalent to or higher than the repellent effect on Vespa mandarinia
Number of worker Effective (Apis mellifera worker): 0/10
Number of worker No response (Apis mellifera worker): 10/10

OCc1ccccc1 [Benzyl alcohol, benzyl alcohol]
behavior of workers after spraying (Vespa mandarinia worker [1]): flew away from the sap bleeding part
Number of worker Effective (Vespa mandarinia worker [1]): 10/10
Number of worker No response (Vespa mandarinia worker [1]): 0/10
Number of P. chinensis antennalis Pe'rez on nest [4]: 0
number of worker on hemispherical surface of black ball (Vespa mandarinia worker [2]; 30 s after disturbance): 0
number of worker on hemispherical surface of black ball (Vespa mandarinia worker [2]; 60 s after disturbance): 0
number of worker on hemispherical surface of black ball (Vespa mandarinia worker [2]; 90 s after disturbance): 0
number of worker on hemispherical surface of black ball (Vespa mandarinia worker [2]; 120 s after disturbance): 0
number of worker on hemispherical surface of black ball (Vespa mandarinia worker [2]; 150 s after disturbance): 0
repellent effect (Vespa mandarinia worker [2]): very strong
number of worker on black ball hemispherical surface ([3]; 30 s after disturbance): 0
number of worker on black ball hemispherical surface ([3]; 60 s after disturbance): 0
number of worker on black ball hemispherical surface ([3]; 90 s after disturbance): 0
number of worker on black ball hemispherical surface ([3]; 120 s after disturbance): 0
number of worker on black ball hemispherical surface ([3]; 150 s after disturbance): 0
repellent effect and action to suppress the aggression [3]: strong equivalent to or higher than the repellent effect on Vespa mandarinia
Number of worker Effective (Apis mellifera worker): 0/10
Number of worker No response (Apis mellifera worker): 10/10
effect on behavior of / harm to honeybee (Apis mellifera worker): does not effect on the behavior of an Apis mellifera worker
